Literature values in patent US20260232589A1, “NANOPREPARATIONS LOADED WITH TRABECTEDIN AND PACLITAXEL” (SHANGHAI JIAO TONG UNIVERSITY, priority 2023, published 2026).

Tested on: Ly6Chi monocytes
Settings: literature reports, after trabectedin administration

COc1cc2c(cc1O)CCN[C@]21CS[C@@H]2c3c(OC(C)=O)c(C)c4c(c3[C@H](COC1=O)N1[C@@H]2[C@H]2c3c(cc(C)c(OC)c3O)C[C@@H]([C@@H]1O)N2C)OCO4 [trabectedin]
number of Ly6Chi monocytes in the peripheral blood of mice: decreases
